# In US9242970B2 (ACTELION PHARMACEUTICALS LTD., priority 2010, dated 2016):
# Read-outs that look alike come from different tables or passages of the source.
# How the values were obtained:
# rat [1] = settings: cited from earlier work
# rat [2] = settings: rat model; cited from earlier work
# rat [3] = settings: cited from earlier work; remark: listed apart in the source
# human orexin-2 receptor = human orexin-2 receptor (Homo sapiens (Human), UniProt O43614); assay: In vitro assay: intracellular calcium measurements (FLIPR), antagonistic activity; assay type: cell-based; settings: CHO cells, 3 nM orexin-A, marked values are geometric means of n = 2-6, read-out: IC50 OX2
# human orexin-2 receptor, sequence (O43614 whole entry): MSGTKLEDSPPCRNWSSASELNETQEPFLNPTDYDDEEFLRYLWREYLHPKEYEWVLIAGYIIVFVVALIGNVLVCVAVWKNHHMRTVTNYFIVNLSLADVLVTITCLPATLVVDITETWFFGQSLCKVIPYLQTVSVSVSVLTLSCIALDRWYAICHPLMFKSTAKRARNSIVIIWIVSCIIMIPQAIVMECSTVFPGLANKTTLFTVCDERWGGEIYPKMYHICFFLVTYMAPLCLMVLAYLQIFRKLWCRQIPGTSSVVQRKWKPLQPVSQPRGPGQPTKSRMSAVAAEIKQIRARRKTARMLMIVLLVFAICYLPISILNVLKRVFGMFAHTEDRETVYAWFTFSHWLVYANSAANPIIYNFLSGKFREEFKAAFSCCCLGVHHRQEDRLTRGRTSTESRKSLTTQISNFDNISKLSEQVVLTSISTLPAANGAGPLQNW
# human orexin-1 receptor = human orexin-1 receptor (Homo sapiens (Human), UniProt O43613); assay: as above; assay type: cell-based; settings: CHO cells, 3 nM orexin-A, marked values are geometric means of n = 2-6, read-out: IC50 OX1
# human orexin-1 receptor, sequence (O43613 whole entry): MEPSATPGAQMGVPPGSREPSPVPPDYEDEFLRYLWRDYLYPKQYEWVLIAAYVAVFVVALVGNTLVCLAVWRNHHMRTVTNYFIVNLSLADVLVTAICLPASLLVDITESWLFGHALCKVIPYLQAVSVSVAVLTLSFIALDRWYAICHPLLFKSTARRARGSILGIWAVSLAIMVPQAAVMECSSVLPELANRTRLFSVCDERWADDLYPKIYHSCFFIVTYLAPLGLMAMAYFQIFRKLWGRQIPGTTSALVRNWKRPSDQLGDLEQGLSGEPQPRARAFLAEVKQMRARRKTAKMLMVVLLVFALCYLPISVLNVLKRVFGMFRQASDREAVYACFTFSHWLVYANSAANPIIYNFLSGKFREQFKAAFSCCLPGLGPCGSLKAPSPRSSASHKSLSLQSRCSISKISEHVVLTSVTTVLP
# [4] = compound incubation time of 10 min
Compound,IC50 (human orexin-2 receptor; compound incubation 120 min),IC50 (human orexin-1 receptor; compound incubation 120 min),IC50 (human orexin-2 receptor; [4]),IC50 (human orexin-1 receptor; [4]),also measured
"CNC(=O)[C@@H](c1ccccc1)N1CCc2cc(OC)c(OC)cc2[C@@H]1CCc1ccc(C(F)(F)F)cc1 [(2R)-2-{(1S)-6,7-dimethoxy-1-[2-(4-trifluoromethyl-phenyl)-ethyl]-3,4-dihydro-1H-isoquinolin-2-yl}-N-methyl-2-phenyl-acetamide]",–,–,–,–,alertness (active wake and locomotion) (rat [1]): decrease alertness; time spent in REM and NREM sleep (rat [1]): dose-dependently increase the time spent in both REM and NREM sleep; memory function (rat [2]): enhance memory function; activity in post-traumatic stress disorder model (rat [3]): active
"COc1cccc(OC)c1C1CC(C)C(=O)N1Cc1csc(-c2ccccc2)n1 (stereo not drawn) [Example 145, 5-(2,6-dimethoxyphenyl)-3-methyl-1-((2-phenylthiazol-4-yl)methyl)pyrrolidin-2-one]",0.054 µM,0.028 µM,–,–,–
"COc1cc(OC)c(C2CCCC(=O)N2Cc2ccc(OC(F)(F)F)cc2)c(OC)c1 (stereo not drawn) [Example 172, 1-(4-(trifluoromethoxy)benzyl)-6-(2,4,6-trimethoxyphenyl)piperidin-2-one]",–,–,0.106 µM,0.33 µM,–
"COc1cccc(OC)c1C1CCCCC(=O)N1Cc1cccc(-n2cccn2)n1 (stereo not drawn) [Example 104, 1-((6-(1H-pyrazol-1-yl)pyridin-2-yl)methyl)-7-(2,6-dimethoxyphenyl)azepan-2-one]",0.429 µM,0.038 µM,–,–,–
"COc1ccc(CN2C(=O)CCCC2c2c(OC)cccc2OC)cc1 (stereo not drawn) [Example 159, 6-(2,6-dimethoxyphenyl)-1-(4-methoxybenzyl)piperidin-2-one]",–,–,0.397 µM,0.684 µM,–
"COc1cncc(OC)c1C1CCCC(=O)N1Cc1ccc2oc3ccccc3c2c1 (stereo not drawn) [Example 65, 1-(dibenzo[b,d]furan-2-ylmethyl)-6-(3,5-dimethoxypyridin-4-yl)piperidin-2-one]",0.001 µM,0.006 µM,–,–,–
"COc1ccnc(OC)c1C1CCCC(=O)N1Cc1ccc2oc3ccccc3c2c1 (stereo not drawn) [Example 57, 1-(dibenzo[b,d]furan-2-ylmethyl)-6-(2,4-dimethoxypyridin-3-yl)piperidin-2-one]",0.003 µM,0.005 µM,–,–,–
"COc1cccc(OC)c1C1CCCC(=O)N1Cc1cc(-c2ccccc2)on1 (stereo not drawn) [Example 25, 6-(2,6-dimethoxyphenyl)-1-((5-phenylisoxazol-3-yl)methyl)piperidin-2-one]",0.902 µM,0.688 µM,–,–,–
"COc1cccc(OC)c1C1CCCCC(=O)N1Cc1cccc(-c2ccccn2)c1F (stereo not drawn) [Example 106, 7-(2,6-dimethoxyphenyl)-1-(2-fluoro-3-(pyridin-2-yl)benzyl)azepan-2-one]",0.06 µM,0.014 µM,–,–,–
"CCOc1cccc(Cl)c1[C@@H]1C[C@H](F)C(=O)N1Cc1ccc(OC(F)(F)F)cc1 (racemic) [Example 436, rac-(3S*,5S*)-5-(2-chloro-6-ethoxyphenyl)-3-fuoro-1-(4-(trifluoromethoxy)benzyl)pyrrolidin-2-one]",0.031 µM,0.965 µM,–,–,–
"O=C1CCCC(c2ccccc2C(F)(F)F)N1Cc1ccc2ccccc2c1 (stereo not drawn) [Example 239, 1-(naphthalen-2-ylmethyl)-6-(2-(trifluoromethyl)phenyl)piperidin-2-one]",–,–,3.58 µM,6.42 µM,–
"COc1cccc(OCC2CC2)c1C1CCCC(=O)N1Cc1ccc(OC(F)(F)F)cc1 (stereo not drawn) [Example 210, 6-(2-(cyclopropylmethoxy)-6-methoxyphenyl)-1-(4-(trifluoromethoxy)benzyl)piperidin-2-one]",–,–,4.14 µM,2.55 µM,–
"O=C1CCCC(c2cccc3c2OCCO3)N1Cc1cccc(-c2ccccc2)c1 (stereo not drawn) [Example 273, 1-([1,1′-biphenyl]-3-ylmethyl)-6-(2,3-dihydrobenzo[b][1,4]dioxin-5-yl)piperidin-2-one]",0.296 µM,0.795 µM,–,–,–
"COc1cccc(C(F)(F)F)c1C1CCCC(=O)N1Cc1ccc(OC(F)(F)F)cc1 (stereo not drawn) [Example 223, 6-(2-methoxy-6-(trifluoromethyl)phenyl)-1-(4-(trifluoromethoxy)benzyl)piperidin-2-one]",–,–,2.95 µM,> 21.6 µM,–
"COc1cccc(OC)c1C1CC(C)C(=O)N1Cc1ccc(OC(F)F)nc1 (stereo not drawn) [Example 199, 1-((6-(difluoromethoxy)pyridin-3-yl)methyl)-5-(2,6-dimethoxyphenyl)-3-methylpyrrolidin-2-one]",–,–,0.621 µM,0.351 µM,–
"COc1cccc(OC)c1C1CCCC(=O)N1Cc1cccc(-c2cccnc2)c1 (stereo not drawn) [Example 7, 6-(2,6-dimethoxyphenyl)-1-(3-(pyridin-3-yl)benzyl)piperidin-2-one]",0.055 µM,0.071 µM,–,–,–
"COc1cccc(OC)c1C1CCCC(=O)N1Cc1cccc(-c2ncccn2)c1 (stereo not drawn) [Example 29, 6-(2,6-dimethoxyphenyl)-1-(3-(pyrimidin-2-yl)benzyl)piperidin-2-one]",0.028 µM,0.014 µM,–,–,–
